Molecular target: T1, human orexin type 2 receptor (Homo sapiens, UniProt O43614)
T1 construct: human orexin type 2 receptor cDNA was inserted into pcDNA3.1(+) plasmid vector (Invitrogen); expressed in transfected cells
T1 sequence (O43614 1-444): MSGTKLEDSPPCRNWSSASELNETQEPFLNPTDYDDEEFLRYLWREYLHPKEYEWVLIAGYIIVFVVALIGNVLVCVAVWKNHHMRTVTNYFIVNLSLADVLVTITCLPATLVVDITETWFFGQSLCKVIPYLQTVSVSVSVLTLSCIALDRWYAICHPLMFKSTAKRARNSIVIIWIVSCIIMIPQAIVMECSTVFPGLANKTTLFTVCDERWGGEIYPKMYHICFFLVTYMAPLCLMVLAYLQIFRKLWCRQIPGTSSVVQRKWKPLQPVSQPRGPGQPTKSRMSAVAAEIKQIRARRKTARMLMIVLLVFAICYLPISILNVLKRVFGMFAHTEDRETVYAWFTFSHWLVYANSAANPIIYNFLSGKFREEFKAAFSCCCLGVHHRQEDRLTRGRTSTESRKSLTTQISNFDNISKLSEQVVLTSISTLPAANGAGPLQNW
Test: Measurement of orexin type 2 receptor agonist activity (calcium fluorescence, CHO cells expressing hOX2R)
Assay type: cell-based
Settings: test compound 3 μM; CHO cells expressing human OX2 receptor; DMSO = 0%, orexin A (human) = 100%
Outline: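 CHO-dhfr cells stably expressing hOX2R, loaded with Fluo-4 AM in HBSS/20 mM HEPES/0.1% BSA with probenecid, then given test compound. Calcium fluorescence was read for about 2 min 40 sec. Activity (%) was scaled between DMSO (0%) and 10 nM final human orexin A (100%).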

Row | Compound | OX2R agonist activity (3 μM, %) [%]
1 | CS(=O)(=O)N[C@H]1CCN(C(=O)N2CCC2)[C@H]1Cc1cccc(-c2cc(F)cc(F)c2)c1 [Example 345, N-((2S,3S)-1-(azetidin-1-ylcarbonyl)-2-((3′,5′-difluorobiphenyl-3-yl)methyl)pyrrolidin-3-yl)methanesulfonamide] | 93
2 | CCS(=O)(=O)N[C@H]1CCN(C(=O)N2CCC2)[C@H]1Cc1csc(-c2cc(F)cc(F)c2)n1 [Example 348, N-((2S,3S)-1-(azetidin-1-ylcarbonyl)-2-((2-(3,5-difluorophenyl)-1,3-thiazol-4-yl)methyl)pyrrolidin-3-yl)ethanesulfonamide] | 109
3 | CC(C)(C)C(=O)N1CC[C@H](NS(C)(=O)=O)[C@@H]1Cc1cccc(-c2cccc(F)c2)c1F [Example 349, N-((2S,3S)-2-((2,3′-difluorobiphenyl-3-yl)methyl)-1-(2,2-dimethylpropanoyl)pyrrolidin-3-yl)methanesulfonamide] | 99
4 | CS(=O)(=O)N[C@H]1CCN(C(=O)C2CCC2)[C@H]1Cc1cccc(-c2cccc(F)c2)c1F [Example 350, N-((2S,3S)-1-(cyclobutylcarbonyl)-2-((2,3′-difluorobiphenyl-3-yl)methyl)pyrrolidin-3-yl)methanesulfonamide] | 99
5 | CN(C)C(=O)N1CC[C@H](NS(C)(=O)=O)[C@@H]1Cc1cccc(-c2cc(F)cc(F)c2)c1 [Example 366, (2S,3S)-2-((3′,5′-difluorobiphenyl-3-yl)methyl)-N,N-dimethyl-3-((methylsulfonyl)amino)pyrrolidine-1-carboxamide] | 100

The remaining lines, values ahead:

Row | OX2R agonist activity (3 μM, %) [%] | Compound
6 | 99 | CS(=O)(=O)N[C@H]1CCN(C(=O)C2(O)CCC2)[C@H]1Cc1cccc(-c2cc(F)cc(F)c2)c1 [Example 344, N-((2S,3S)-2-((3′,5′-difluorobiphenyl-3-yl)methyl)-1-((1-hydroxycyclobutyl)carbonyl)pyrrolidin-3-yl)methanesulfonamide]
7 | 107 | CS(=O)(=O)N[C@H]1CCN(C(=O)C2(C#N)CCC2)[C@H]1Cc1cccc(-c2cccc(F)c2)c1 [Example 346, N-((2S,3S)-1-((1-cyanocyclobutyl)carbonyl)-2-((3′-fluorobiphenyl-3-yl)methyl)pyrrolidin-3-yl)methanesulfonamide]
8 | 87 | CS(=O)(=O)N[C@H]1CCN(C(=O)N2CC3(CC3)C2)[C@H]1Cc1cccc(-c2cccc(F)c2)c1 [Example 347, N-((2S,3S)-1-(5-azaspiro[2.3]hex-5-ylcarbonyl)-2-((3′-fluorobiphenyl-3-yl)methyl)pyrrolidin-3-yl)methanesulfonamide]
9 | 106 | CC1(C(=O)N2CC[C@H](NS(C)(=O)=O)[C@@H]2Cc2cccc(-c3cccc(F)c3)c2F)CC1 [Example 351, N-((2S,3S)-2-((2,3′-difluorobiphenyl-3-yl)methyl)-1-((1-methylcyclopropyl)carbonyl)pyrrolidin-3-yl)methanesulfonamide]
10 | 102 | CS(=O)(=O)N[C@H]1CCN(C(=O)N2CCC2)[C@H]1Cc1cccc(-c2cccc(F)c2)c1F [Example 352, N-((2S,3S)-1-(azetidin-1-ylcarbonyl)-2-((2,3′-difluorobiphenyl-3-yl)methyl)pyrrolidin-3-yl)methanesulfonamide]
11 | 96 | CCS(=O)(=O)N[C@H]1CCN(C(=O)N(C)C)[C@H]1Cc1cccc(-c2cccc(F)c2)c1F [Example 373, (2S,3S)-2-((2,3′-difluorobiphenyl-3-yl)methyl)-3-((ethylsulfonyl)amino)-N,N-dimethylpyrrolidine-1-carboxamide]
12 | 106 | CC(C)(O)C(=O)N1CC[C@H](NS(C)(=O)=O)[C@@H]1Cc1cccc(-c2cccc(F)c2)c1F [Example 387, N-((2S,3S)-2-((2,3′-difluorobiphenyl-3-yl)methyl)-1-(2-hydroxy-2-methylpropanoyl)pyrrolidin-3-yl)methanesulfonamide]

From patent US20200207734A1, “HETEROCYCLIC COMPOUND AND USE THEREOF” (Takeda Pharmaceutical Company Limited, priority 2017, published 2020)
